Reference: US10632125B2, “MTH1 inhibitors for treatment of inflammatory and autoimmune conditions” (THOMAS HELLEDAYS STIFTELSE FÖR MEDICINSK FORSKNING, priority 2014, dated 2020)

target: MTH1 (Homo sapiens, UniProt P36639); experiment: MTH1 enzymatic assay (malachite green, coupled to pyrophosphatase); format: biochemical; settings: dGTP 100 μM, MTH1 6 nM; 96- or 384-well format; read-out: IC50

Compound	IC50 [µM]
CNc1cc(-c2cccc(C#N)c2C)nc(N)n1 [Example 258, 3-[2-amino-6-(methylamino)pyrimidin-4-yl]-2-methylbenzonitrile]	< 0.2
CNc1cc(-c2cccc3c2OCC3)nc(N)n1 [Example 261, 6-(2,3-dihydro-1-benzofuran-7-yl)-4-N-methylpyrimidine-2,4-diamine]	< 0.2
CNc1cc(-c2cc(S(=O)(=O)N3CCOCC3)ccc2C)nc(N)n1 [Example 262, 4-N-methyl-6-[2-methyl-5-(morpholine-4-sulfonyl)phenyl]pyrimidine-2,4-diamine]	< 0.2
Nc1nc(NCCc2ccc(Cl)cc2)cc(-c2cccc(Cl)c2Cl)n1 [Example 263, 4-N-[2-(4-chlorophenyl)ethyl]-6-(2,3-dichlorophenyl)pyrimidine-2,4-diamine]	< 0.2
Cc1cccc(-c2cc(NCc3ccc(N4CCN(C)CC4)cc3)nc(N)n2)c1C [Example 280, 6-(2,3-dimethylphenyl)-4-N-{[4-(4-methylpiperazin-1-yl)phenyl]methyl}pyrimidine-2,4-diamine]	< 0.2
Cc1cccc(-c2cc(NCC3CCN(C(=O)OC(C)(C)C)CC3)nc(N)n2)c1C [Example 283, tert-butyl 4-({[2-amino-6-(2,3-dimethylphenyl)pyrimidin-4-yl]amino}methyl)-piperidine-1-carboxylate]	< 0.2
CC(=O)NCCCCNc1cc(-c2cccc(Cl)c2Cl)nc(N)n1 [Example 303, N-(4-{[2-Amino-6-(2,3-dichlorophenyl)pyrimidin-4-yl]amino}butyl)acetamide]	< 0.2
Nc1nc(NCc2ccc(-c3csnn3)cc2)cc(-c2cccc(Cl)c2Cl)n1 [Example 305, 6-(2,3-Dichlorophenyl)-4-N-{[4-(1,2,3-thiadiazol-4-yl)phenyl]methyl}pyrimidine-2,4-diamine]	< 0.2
C=CC(=O)Nc1cccc(-c2cc(NC)nc(N)n2)c1 [Example 309, N-{3-[2-Amino-6-(methylamino)pyrimidin-4-yl]phenyl}prop-2-enamide]	< 0.2
CNc1cc(-c2cccc(NC(=O)/C=C/c3ccccc3)c2)nc(N)n1 [Example 310, (2E)-N-{3-[2-Amino-6-(methylamino)pyrimidin-4-yl]phenyl}-3-phenylprop-2-enamide]	< 0.2
C=CC(=O)Nc1cccc(-c2cc(NC)nc(N)n2)c1C [Example 311, N-{3-[2-Amino-6-(methylamino)pyrimidin-4-yl]-2-methylphenyl}prop-2-enamide]	< 0.2
C#CC(=O)Nc1cccc(-c2cc(NC)nc(N)n2)c1 [Example 314, N-{3-[2-Amino-6-(methylamino)pyrimidin-4-yl]phenyl}prop-2-ynamide]	< 0.2
CNc1cc(-c2cccc(NC(=O)c3cc(Cl)ccc3O)c2)nc(N)n1 [Example 321, N-{3-[2-Amino-6-(methylamino)pyrimidin-4-yl]phenyl}-5-chloro-2-hydroxybenzamide]	< 0.2
CNc1cc(-c2cccc(NC(=O)CCC(=O)N3CCCC3)c2)nc(N)n1 [Example 325, N-{3-[2-Amino-6-(methylamino)pyrimidin-4-yl]phenyl}-4-oxo-4-(pyrrolidin-1-yl)butanamide]	< 0.2
CNc1cc(-c2cccc(CN)c2)nc(N)n1 [Example 328, 6-[3-(Aminomethyl)phenyl]-4-N-methylpyrimidine-2,4-diamine]	< 0.2
Cc1cccc(-c2cc(NCC3CCCN(c4ccccn4)C3)nc(N)n2)c1C (stereo not drawn) [Example 355, 6-(2,3-Dimethylphenyl)-4-N-{[1-(pyridin-2-yl)piperidin-3-yl]methyl}pyrimidine-2,4-diamine]	< 0.2
Cc1cccc(-c2cc(NCCCNC(=O)Nc3ccc(F)c(F)c3)nc(N)n2)c1C [Example 362, 3-(3-{[2-Amino-6-(2,3-dimethylphenyl)pyrimidin-4-yl]amino}propyl)-1-(3,4-difluorophenyl)urea]	< 0.2
Cc1cccc(-c2cc(NCCCCCNC(=O)OC(C)(C)C)nc(N)n2)c1C [Example 371, tert-Butyl N-(5-{[2-amino-6-(2,3-dimethylphenyl)pyrimidin-4-yl]amino}pentyl)-carbamate]	< 0.2
Cc1cccc(-c2cc(NCCCNS(=O)(=O)c3ccc(S(C)(=O)=O)cc3)nc(N)n2)c1C [Example 375, N-(3-{[2-Amino-6-(2,3-dimethylphenyl)pyrimidin-4-yl]amino}propyl)-4-methanesulfonylbenzene-1-sulfonamide]	< 0.2
CC(=O)Nc1ccc(S(=O)(=O)NCCCNc2cc(-c3cccc(C)c3C)nc(N)n2)cc1 [Example 382, N-{4-[(3-{[2-Amino-6-(2,3-dimethylphenyl)pyrimidin-4-yl]amino}propyl)sulfamoyl]-phenyl}acetamide]	< 0.2
Cc1cccc(-c2cc(NC(C)CCc3ccccc3)nc(N)n2)c1C (stereo not drawn) [Example 394, 6-(2,3-Dimethylphenyl)-4-N-(4-phenylbutan-2-yl)pyrimidine-2,4-diamine]	< 0.2

Next, values leading:

IC50 [µM]	Compound
< 0.2	COc1cc(CNc2cc(-c3cccc(C)c3C)nc(N)n2)ccn1 [Example 253, 6-(2,3-dimethylphenyl)-4-N-[(2-methoxypyridin-4-yl)methyl]pyrimidine-2,4-diamine]
< 0.2	Cc1cccc(-c2cc(NCCc3cccnc3)nc(N)n2)c1C [Example 268, 6-(2,3-dimethylphenyl)-4-N-[2-(pyridin-3-yl)ethyl]pyrimidine-2,4-diamine]
< 0.2	Cc1cccc(-c2cc(NCCNC(=O)OC(C)(C)C)nc(N)n2)c1C [Example 271, tert-butyl N-(2-{[2-amino-6-(2,3-dimethylphenyl)pyrimidin-4-yl]amino}ethyl)-carbamate]
< 0.2	Cc1cccc(-c2cc(NCCN(C)C(=O)OC(C)(C)C)nc(N)n2)c1C [Example 274, tert-butyl N-(2-{[2-amino-6-(2,3-dimethylphenyl)pyrimidin-4-yl]amino}ethyl)-N-methylcarbamate]
< 0.2	Cc1cccc(-c2cc(NCc3ccc(S(C)(=O)=O)cc3)nc(N)n2)c1C [Example 279, 6-(2,3-dimethylphenyl)-4-N-[(4-methanesulfonylphenyl)methyl]pyrimidine-2,4-diamine]
< 0.2	Cc1nc(CCNc2cc(-c3cccc(C)c3C)nc(N)n2)n[nH]1 [Example 332, 6-(2,3-Dimethylphenyl)-4-N-[2-(5-methyl-1H-1,2,4-triazol-3-yl)ethyl]pyrimidine-2,4-diamine]
< 0.2	Cc1cccc(-c2cc(NCCn3ccccc3=O)nc(N)n2)c1C [Example 337, 1-(2-{[2-Amino-6-(2,3-dimethylphenyl)pyrimidin-4-yl]amino}ethyl)-1,2-dihydropyridin-2-one]
< 0.2	Cc1cccc(-c2cc(NCc3ccc[nH]c3=O)nc(N)n2)c1C [Example 338, 3-({[2-Amino-6-(2,3-dimethylphenyl)pyrimidin-4-yl]amino}methyl)-1,2-dihydropyridin-2-one]
< 0.2	Cc1cccc(-c2cc(NCCc3cccc(Cl)c3)nc(N)n2)c1C [Example 341, 4-N-[2-(3-Chlorophenyl)ethyl]-6-(2,3-dimethylphenyl)pyrimidine-2,4-diamine]
< 0.2	Cc1cccc(-c2cc(NCCCn3ccnc3)nc(N)n2)c1C [Example 342, 6-(2,3-Dimethylphenyl)-4-N-[3-(1H-imidazol-1-yl)propyl]pyrimidine-2,4-diamine]
< 0.2	Cc1cccc(-c2cc(NCCc3ccc(F)cc3)nc(N)n2)c1C [Example 344, 6-(2,3-Dimethylphenyl)-4-N-[2-(4-fluorophenyl)ethyl]pyrimidine-2,4-diamine]
< 0.2	Cc1cccc(-c2cc(NCCc3scnc3C)nc(N)n2)c1C [Example 352, 6-(2,3-Dimethylphenyl)-4-N-[2-(4-methyl-1,3-thiazol-5-yl)ethyl]pyrimidine-2,4-diamine]
< 0.2	Cc1cccc(-c2cc(NCc3cnn(-c4ccccc4)n3)nc(N)n2)c1C [Example 356, 6-(2,3-Dimethylphenyl)-4-N-[(2-phenyl-2H-1,2,3-triazol-4-yl)methyl]pyrimidine-2,4-diamine]
< 0.2	Cc1cccc(-c2cc(NCCCNS(=O)(=O)c3ccc(Cl)cc3)nc(N)n2)c1C [Example 357, N-(3-{[2-Amino-6-(2,3-dimethylphenyl)pyrimidin-4-yl]amino}propyl)-4-chlorobenzene-1-sulfonamide]
< 0.2	Cc1cc2cc(CNc3cc(-c4cccc(C)c4C)nc(N)n3)ccc2[nH]1 [Example 364, 6-(2,3-Dimethylphenyl)-4-N-[(2-methyl-1H-indol-5-yl)methyl]pyrimidine-2,4-diamine]
< 0.2	Cc1cccc(-c2cc(NCCCCNC(=O)OC(C)(C)C)nc(N)n2)c1C [Example 370, tert-Butyl N-(4-{[2-amino-6-(2,3-dimethylphenyl)pyrimidin-4-yl]amino}butyl)-carbamate]
< 0.2	COc1ccc(S(=O)(=O)NCCNc2cc(-c3cccc(C)c3C)nc(N)n2)cc1 [Example 385, N-(2-{[2-Amino-6-(2,3-dimethylphenyl)pyrimidin-4-yl]amino}ethyl)-4-methoxybenzene-1-sulfonamide]
< 0.2	Cc1cccc(-c2cc(NCCCNS(=O)(=O)c3cc(Cl)c(Cl)s3)nc(N)n2)c1C [Example 388, N-(3-{[2-Amino-6-(2,3-dimethylphenyl)pyrimidin-4-yl]amino}propyl)-4,5-dichlorothiophene-2-sulfonamide]
< 0.2	Cc1cccc(-c2cc(NCCNc3nc4ccccc4o3)nc(N)n2)c1C [Example 393, 4-N-{2-[(1,3-Benzoxazol-2-yl)amino]ethyl}-6-(2,3-dimethylphenyl)pyrimidine-2,4-diamine]
< 0.2	Cc1cccc(-c2cc(NCCNc3nc(Br)ns3)nc(N)n2)c1C [Example 398, 4-N-{2-[(3-Bromo-1,2,4-thiadiazol-5-yl)amino]ethyl}-6-(2,3-dimethylphenyl)pyrimidine-2,4-diamine]
< 0.2	Cc1cccc(-c2cc(NCCc3nnc(-c4ccc(F)cc4)o3)nc(N)n2)c1C [Example 400, 6-(2,3-Dimethylphenyl)-4-N-{2-[5-(4-fluorophenyl)-1,3,4-oxadiazol-2-yl]ethyl}pyrimidine-2,4-diamine]
